In brackets after ≈: the same amount, converted by molar mass.
Assays:
S. aureus ATCC 13709 = experiment: MIC, S. aureus ATCC 13709 (Alamar Blue broth microdilution); type: cell-based; details: Alamar Blue read after overnight incubation at 35° C.; for MIC Sa: S. aureus; for MIC: Staphylococcus aureus, ATCC13709, S. aureus
E. coli ATCC 25922 = experiment: MIC, E. coli ATCC 25922; type: cell-based; details: Alamar Blue read after overnight incubation at 35° C.; for MIC Ec: E. coli; for MIC: Escherichia coli, ATCC25922, E. coli

Row | Compound | MIC Sa (S. aureus ATCC 13709) [µg/mL] | MIC Ec (E. coli ATCC 25922) [µg/mL] | MIC (S. aureus ATCC 13709) [µg/mL] | MIC (E. coli ATCC 25922) [µg/mL]
1 | CCOC1CN(c2nc(Oc3cnc(C)nc3)nc3[nH]c4c(NC)cc(F)cc4c23)CC1N (mixture of isomers) [4.147] | ≤0.5 | 1 |  | 
2 | CNc1cc(F)cc2c1[nH]c1nc(Oc3cncc(-c4nnnn4C)c3)nc(N3CC4CC(N)C4C3)c12 (mixture of isomers) [4.171] | ≤0.5 | 4 |  | 
3 | CNc1cc(F)cc2c1[nH]c1nc(Oc3cnc(N)nc3)nc(N3CCC4(CC4N)C3)c12 (mixture of isomers) [4.174] | ≤0.5 | ≤0.5 |  | 
4 | CNc1cc(F)cc2c1[nH]c1nc(Oc3cnc(N)nc3)nc(N3CC4C(N)CC4(C)C3)c12 (mixture of isomers) [4.192] | ≤0.5 | 4 |  | 
5 | NC1C2CN(c3nc(Sc4cnc5cccnc5c4)nc4[nH]c5c(NC6CC6)cc(F)cc5c34)CC12 (centres unmarked) [1.1] |  |  | 4 (≈ 8.02 µM) | 64 (≈ 128 µM)
6 | NC1CN(c2nc(Sc3cnc4ccc[n+]([O-])c4c3)nc3[nH]c4c(NC5CC5)cc(F)cc4c23)CC12CC2 (centres unmarked) [1.2] |  |  | 32 (≈ 60.5 µM) | > 64
7 | NC1C2CN(c3nc(Sc4cnc5ccc[n+]([O-])c5c4)nc4[nH]c5c(Cl)cccc5c34)CC12 (centres unmarked) [1.3] |  |  | 32 (≈ 67.2 µM) | > 64
8 | N[C@@H]1CCN(c2nc(Sc3cnc4ccc[n+]([O-])c4c3)nc3[nH]c4c(Cl)cccc4c23)C1 [1.4] |  |  | 32 (≈ 69 µM) | 64 (≈ 138 µM)
9 | NC1CN(c2nc(Sc3cnc4nccnc4c3)nc3[nH]c4ccccc4c23)C1 [1.5] |  |  | > 64 | > 64
10 | NC1CCN(c2nc(Sc3cnc4nccnc4c3)nc3[nH]c4ccccc4c23)C1 (centres unmarked) [1.6] |  |  | 32 (≈ 77.2 µM) | > 64
11 | Cc1cccc2c1[nH]c1nc(Sc3cnc4nccnc4c3)nc(N3CC4C(N)C4C3)c12 (centres unmarked) [1.7] |  |  | 4 (≈ 9.08 µM) | > 32
12 | Nc1cccc2c1[nH]c1nc(Sc3cnc4ccc[n+]([O-])c4c3)nc(N3CC4C(N)C4C3)c12 (centres unmarked) [1.8] |  |  | 64 (≈ 140 µM) | > 64
13 | Nc1cccc2c1[nH]c1nc(Sc3cnc4cccnc4c3)nc(N3CC4C(N)C4C3)c12 (centres unmarked) [1.9] |  |  | 64 (≈ 145 µM) | > 64
14 | CCNc1cccc2c1[nH]c1nc(Sc3cnc4ccc[n+]([O-])c4c3)nc(N3CC4C(N)C4C3)c12 (centres unmarked) [1.10] |  |  | ≤ 0.5 | 4 (≈ 8.25 µM)
15 | CCNc1cccc2c1[nH]c1nc(Sc3cnc4cccnc4c3)nc(N3CC4C(N)C4C3)c12 (centres unmarked) [1.11] |  |  | ≤ 0.5 | 8 (≈ 17.1 µM)
16 | CNc1cccc2c1[nH]c1nc(Sc3cnc4cccnc4c3)nc(N3CC4C(N)C4C3)c12 (centres unmarked) [1.12] |  |  | ≤ 0.5 | 1 (≈ 2.2 µM)
17 | CNc1cccc2c1[nH]c1nc(Sc3cnc4ccc[n+]([O-])c4c3)nc(N3CC4C(N)C4C3)c12 (centres unmarked) [1.13] | ≤0.5 |  |  | ≤ 0.5
18 | CNc1cccc2c1[nH]c1nc(Sc3cnc4ccc[n+]([O-])c4c3)nc(N3CC[C@H](N)C3)c12 [1.14] |  |  | ≤ 0.5 | 1 (≈ 2.18 µM)
19 | CNc1cccc2c1[nH]c1nc(Sc3cnc4nccnc4c3)nc(N3CC[C@H](N)C3)c12 [1.15] |  |  | 1 (≈ 2.25 µM) | 2 (≈ 4.51 µM)
20 | CNc1cccc2c1[nH]c1nc(Sc3cnc4nccnc4c3)nc(N3CC4C(N)C4C3)c12 (centres unmarked) [1.16] |  |  | ≤ 0.5 | 1 (≈ 2.2 µM)
21 | CNc1cccc2c1[nH]c1nc(Sc3cnc4ccc[n+]([O-])c4c3)nc(N3CC(O)C3)c12 [1.17] |  |  | ≤ 0.5 | > 64
22 | CNc1cccc2c1[nH]c1nc(Sc3cnc4ccc[n+]([O-])c4c3)nc(N3C[C@@H]4[C@@H](CN)[C@@H]4C3)c12 [1.18] |  |  | ≤ 0.5 | 2 (≈ 4.13 µM)
23 | CNc1cccc2c1[nH]c1nc(Sc3cnc4ccc[n+]([O-])c4c3)nc(N3C[C@@H]4[C@H](C3)[C@@]4(N)C(N)=O)c12 [1.19] |  |  | > 64 | > 64
24 | CNc1cccc2c1[nH]c1nc(Sc3cnc4ccc[n+]([O-])c4c3)nc(N3CC(CN)C3)c12 [1.20] |  |  | 4 (≈ 8.72 µM) | 16 (≈ 34.9 µM)
25 | CNc1cccc2c1[nH]c1nc(Sc3cnc4ccc[n+]([O-])c4c3)nc(N3CC(CNC(=O)c4cn(C)nc4C(F)(F)F)C3)c12 [1.21] |  |  | ≤ 0.5 | > 64
26 | CNc1cccc2c1[nH]c1nc(Sc3cncc(S(=O)(=O)N(C)C)c3)nc(N3CC4C(N)C4C3)c12 (centres unmarked) [1.22] |  |  | 1 (≈ 1.96 µM) | 8 (≈ 15.7 µM)
27 | CNc1cccc2c1[nH]c1nc(Sc3cnc4ccc[n+]([O-])c4c3)nc(N3CC4C(N)C4C3)c12 (centres unmarked) [1.23] | ≤0.5 |  |  | 
28 | CNc1cccc2c1[nH]c1nc(Sc3cnc4cccnc4c3)nc(N3CC4C(N)C4C3)c12 (centres unmarked) [1.24] | ≤0.5 | 1 (≈ 2.2 µM) |  | 

Row | Compound | MIC Sa (S. aureus ATCC 13709) [µg/mL] | MIC Ec (E. coli ATCC 25922) [µg/mL] | MIC (S. aureus ATCC 13709) [µg/mL] | MIC (E. coli ATCC 25922) [µg/mL]
29 | CNc1cccc2c1[nH]c1nc(Sc3cnc4cccnc4c3)nc(N3CCC4(CC4N)C3)c12 (centres unmarked) [1.25] |  | 4 (≈ 8.54 µM) | ≤ 0.5 | 
30 | CNc1cccc2c1[nH]c1nc(Sc3cnc4cccnc4c3)nc(N3CCC4(CC4N)C3)c12 (centres unmarked) [1.26] | ≤0.5 | 1 (≈ 2.13 µM) |  | 
31 | CNc1cccc2c1[nH]c1nc(Sc3cnc4cccnc4c3)nc(N3CC(N)C4(CC4)C3)c12 (centres unmarked) [1.27] |  |  | ≤ 0.5 | 1 (≈ 2.13 µM)
32 | CNc1cccc2c1[nH]c1nc(Sc3cnc4cccnc4c3)nc(N3CC4CCCNC4C3)c12 (centres unmarked) [1.28] |  |  | 4 (≈ 8.29 µM) | 16 (≈ 33.2 µM)
33 | CNc1cccc2c1[nH]c1nc(Sc3cnc4cccnc4c3)nc(N3CC(N)C3)c12 [1.29] |  |  | 1 (≈ 2.33 µM) | > 64
34 | CNc1cccc2c1[nH]c1nc(Sc3cnc4cccnc4c3)nc(N3CC4C(C3)C4(N)CO)c12 (centres unmarked) [1.30] |  |  | 16 (≈ 33 µM) | > 64
35 | CNc1cccc2c1[nH]c1nc(Sc3cc4ncccc4[n+]([O-])c3)nc(N3C[C@@H]4[C@@H](N)[C@@H]4C3)c12 [1.31] |  |  | ≤ 0.5 | ≤ 0.5
36 | CNc1cccc2c1[nH]c1nc(Sc3cnc4ccc[n+]([O-])c4c3)nc(N3CC4CNC4C3)c12 (centres unmarked) [1.32] |  |  | ≤ 0.5 | 4 (≈ 8.5 µM)
37 | CNc1cccc2c1[nH]c1nc(Sc3cnc4ccc[n+]([O-])c4c3)nc(N3CC(C4(N)CC4)C3)c12 [1.33] |  |  | ≤ 0.5 | 4 (≈ 8.25 µM)
38 | CNc1cccc2c1[nH]c1nc(Sc3cnc4ccc[n+]([O-])c4c3)nc(N3CCC[C@@H](N)C3)c12 [1.34] |  |  | 1 (≈ 2.12 µM) | 4 (≈ 8.46 µM)
39 | CNc1cccc2c1[nH]c1nc(Sc3cnc4ccc[n+]([O-])c4c3)nc(N3CC[C@@H](C)[C@@H](N)C3)c12 [1.35] |  |  | ≤ 0.5 | 2 (≈ 4.11 µM)
40 | CNc1cccc2c1[nH]c1nc(Sc3cncc(S(=O)(=O)NC)c3)nc(N3CC4C(N)C4C3)c12 (centres unmarked) [1.36] |  |  | 2 (≈ 4.03 µM) | 4 (≈ 8.05 µM)
41 | CNc1cccc2c1[nH]c1nc(Sc3cnc4cccnc4c3)nc(N3CCC[C@@H](N)C3)c12 [1.37] |  |  | 1 (≈ 2.19 µM) | 4 (≈ 8.76 µM)
42 | CNc1cccc2c1[nH]c1nc(Sc3cnc4ccc[n+]([O-])c4c3)nc(N3CCC4(CC4N)C3)c12 (centres unmarked) [1.38] |  |  | ≤ 0.5 | 2 (≈ 4.13 µM)
43 | CNc1cccc2c1[nH]c1nc(Sc3cnc4ccc[n+]([O-])c4c3)nc(N3CCC4(CC4N)C3)c12 (centres unmarked) [1.39] | ≤0.5 | 1 (≈ 2.06 µM) |  | 
44 | CNc1cccc2c1[nH]c1nc(Sc3cnc4ccc[n+]([O-])c4c3)nc(N3CC(N)C4(CC4)C3)c12 (centres unmarked) [1.40] |  |  | ≤ 0.5 | 1 (≈ 2.06 µM)
45 | CNc1cccc2c1[nH]c1nc(Sc3cncc(S(N)(=O)=O)c3)nc(N3CC4C(N)C4C3)c12 (centres unmarked) [1.41] |  |  | 4 (≈ 8.29 µM) | 8 (≈ 16.6 µM)
46 | CNc1cccc2c1[nH]c1nc(Sc3cncc(S(=O)(=O)NCCO)c3)nc(N3CC4C(N)C4C3)c12 (centres unmarked) [1.42] |  |  | 8 (≈ 15.2 µM) | 32 (≈ 60.8 µM)
47 | CNc1cccc2c1[nH]c1nc(Sc3cncnc3)nc(N3CC4C(N)C4C3)c12 (centres unmarked) [1.43] |  |  | 2 (≈ 4.94 µM) | 8 (≈ 19.8 µM)
48 | CNc1cccc2c1[nH]c1nc(Sc3cncnc3)nc(N3CC(N)C4(CC4)C3)c12 (centres unmarked) [1.44] |  |  | 1 (≈ 2.39 µM) | 2 (≈ 4.78 µM)
49 | CNc1cccc2c1[nH]c1nc(Sc3cnc4cccnc4c3)nc(N3CCCCC(N)C3)c12 (centres unmarked) [1.45] |  |  | 1 (≈ 2.12 µM) | 4 (≈ 8.5 µM)
50 | CNc1cccc2c1[nH]c1nc(Sc3cnc4cccnc4c3)nc(N3CCNCC3)c12 [1.46] |  |  | 2 (≈ 4.52 µM) | 4 (≈ 9.04 µM)
51 | CNc1cccc2c1[nH]c1nc(Sc3cnc4cccnc4c3)nc(N3CC4CNC(C4)C3)c12 (centres unmarked) [1.47] |  |  | ≤ 0.5 | 2 (≈ 4.27 µM)
52 | CNc1cccc2c1[nH]c1nc(Sc3cnc4cccnc4c3)nc(N3CCC(CN)C3)c12 (centres unmarked) [1.48] |  |  | ≤ 0.5 | 2 (≈ 4.38 µM)
53 | CNc1cccc2c1[nH]c1nc(Sc3cnc4ccc[n+]([O-])c4c3)nc(N3CC4C(N)C4C3)c12 (centres unmarked) [1.49] | ≤0.5 |  |  | 
54 | CNc1cc(F)cc2c1[nH]c1nc(Sc3cnc4ccc[n+]([O-])c4c3)nc(N3CC4C(N)C4C3)c12 (centres unmarked) [1.50] |  |  | ≤ 0.5 | ≤ 0.5
55 | CNc1cccc2c1[nH]c1nc(Sc3cnc4ccc[n+]([O-])c4c3)nc(N3CC4C(N)C4C3)c12 (centres unmarked) [1.71] | ≤0.5 |  |  | 
